Reference: US20250230193A1, “CYCLIC COMPOUND HAVING SELECTIVE KRAS INHIBITORY EFFECT ON HRAS AND NRAS” (CHUGAI SEIYAKU KABUSHIKI KAISHA, priority 2022, published 2025)
Where a SMILES comes first, the peptide text is derived from it. Bridges are numbered along the chain shown (N, C = ends). [ ]: non-standard residue; d: D form. The star is where a group is joined. hPhe(3-Cl-4-CF3) = N[C@@H](CCc1ccc(C(F)(F)F)c(Cl)c1)C(=O)O; NPrPhe(4-CF3) = CCCN[C@@H](Cc1ccc(C(F)(F)F)cc1)C(=O)O; NEtPhe(4-CF3) = CCN[C@@H](Cc1ccc(C(F)(F)F)cc1)C(=O)O; NMeGly(cPent) = CN[C@H](C(=O)O)C1CCCC1; NMeD = CN[C@@H](CC(=O)O)C(=O)O; NMeL = CN[C@@H](CC(C)C)C(=O)O; Morpholide = C1CN(*)CCO1; NMeA = CN[C@@H](C)C(=O)O; Pyrrolidide = C1CCN(*)C1; Ac5c = NC1(C(=O)O)CCCC1; Aze = O=C(O)[C@@H]1CCN1; Aib = CC(C)(N)C(=O)O; Sar = CNCC(=O)O

How the values were obtained:
[1] = molecular target: GDP-bound NRAS wild-type protein (Homo sapiens, UniProt P01111); assay: Binding to NRAS by surface plasmon resonance (SPR), Single Cycle Kinetics; settings: SPR; for NRAS/KRAS (ratio of KD value with respect to NRAS to KD value with respect to KRAS): GDP-bound NRAS wild-type vs GDP-bound KRAS wild-type
Sequence of GDP-bound NRAS wild-type protein (P01111 whole entry): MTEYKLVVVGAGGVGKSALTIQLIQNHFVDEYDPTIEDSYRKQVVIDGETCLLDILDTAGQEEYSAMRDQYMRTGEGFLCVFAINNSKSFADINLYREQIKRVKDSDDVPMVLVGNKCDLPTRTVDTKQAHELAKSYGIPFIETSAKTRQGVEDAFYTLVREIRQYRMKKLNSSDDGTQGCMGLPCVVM

[2] = molecular target: GDP-bound HRAS wild-type protein (Homo sapiens, UniProt P01112); assay: Binding to HRAS by surface plasmon resonance (SPR), Single Cycle Kinetics; settings: SPR; for HRAS/KRAS (ratio of KD value with respect to HRAS to KD value with respect to KRAS): GDP-bound HRAS wild-type vs GDP-bound KRAS wild-type
Sequence of GDP-bound HRAS wild-type protein (P01112 whole entry): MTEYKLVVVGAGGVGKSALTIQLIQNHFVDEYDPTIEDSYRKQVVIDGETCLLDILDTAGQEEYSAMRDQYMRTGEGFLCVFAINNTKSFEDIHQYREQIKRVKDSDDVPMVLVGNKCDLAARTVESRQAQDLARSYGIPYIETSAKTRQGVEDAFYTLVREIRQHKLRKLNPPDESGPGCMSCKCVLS

With `C#CC[C@H]1C(=O)N[C@@H]([C@@H](C)CC)C(=O)N(C)CC(=O)N(C)[C@H]2C/C=C\CCN(C2=O)[C@@H](Cc2ccc(C(F)(F)F)cc2)C(=O)N(C)CC(=O)N[C@@H](CCc2cc(F)c(C(F)(F)F)c(F)c2)C(=O)N2C[C@H](OCC)C[C@H]2C(=O)NC2(CCC2)C(=O)N(C)[C@@H](C2CCCC2)C(=O)N(C)[C@H](C(=O)N(C)C)CC(=O)N1C` [PP1115] the “NRAS/KRAS (ratio of KD value with respect to NRAS to KD value with respect to KRAS)” value ([1]; KD ratio) was “A (a compound having 10 or more and less than 20 is denoted as A)” and the “HRAS/KRAS (ratio of KD value with respect to HRAS to KD value with respect to KRAS)” value ([2]; KD ratio) was “A (a compound having 10 or more and less than 20 is denoted as A)”.

`CC[C@H](C)[C@@H]1NC(=O)[C@H](CC(C)C)N(C)C(=O)C[C@@H](C(=O)N2CCOCC2)N(C)C(=O)[C@H](C2CCCC2)N(C)C(=O)C(C)(C)NC(=O)[C@@H]2CCCN2C(=O)[C@H](CCc2ccc(C(F)(F)F)c(Cl)c2)NC(=O)CN(C)C(=O)[C@H](Cc2ccc(C(F)(F)F)cc2)N(CC)C(=O)[C@@H]2CCN2C(=O)[C@H](C)N(C)C1=O` [PP0221] ([NMeL]I[NMeA][Aze][NEtPhe(4-CF3)][Sar][hPhe(3-Cl-4-CF3)]P[Aib][NMeGly(cPent)][NMeD]-Morpholide; lactam N-11) was tested, and the “NRAS/KRAS (ratio of KD for GDP-bound NRAS wild-type to KD for KRAS)” value [1] was “C (A compound having a KD ratio of 0.1 or more and less than 3 is denoted as C)” and the “HRAS/KRAS (ratio of KD for GDP-bound HRAS wild-type to KD for KRAS)” value [2] was “C (A compound having a KD ratio of 0.1 or more and less than 3 is denoted as C)”.

`CCCN1C(=O)[C@@H]2CCN2C(=O)[C@H](C)N(C)C(=O)[C@H]([C@@H](C)CC)NC(=O)[C@H](CC(C)C)N(C)C(=O)C[C@@H](C(=O)N2CCCC2)N(C)C(=O)[C@H](C2CCCC2)N(C)C(=O)C2(CCCC2)NC(=O)[C@@H]2CCCN2C(=O)[C@H](CCc2ccc(C(F)(F)F)c(Cl)c2)NC(=O)CN(C)C(=O)[C@@H]1Cc1ccc(C(F)(F)F)cc1` [PP0179] ([NMeL]I[NMeA][Aze][NPrPhe(4-CF3)][Sar][hPhe(3-Cl-4-CF3)]P[Ac5c][NMeGly(cPent)][NMeD]-Pyrrolidide; lactam N-11) was tested, and the “NRAS/KRAS (ratio of KD for GDP-bound NRAS wild-type to KD for KRAS)” value [1] was “C (A compound having a KD ratio of 0.1 or more and less than 3 is denoted as C)” and the “HRAS/KRAS (ratio of KD for GDP-bound HRAS wild-type to KD for KRAS)” value [2] was “B (a compound having 3 or more and less than 10 is denoted as B)”.

`CCO[C@@H]1C[C@H]2C(=O)NC3(CCC3)C(=O)N(C)[C@@H](C3CCCC3)C(=O)N(C)[C@H](C(=O)N3CCOCC3)CC(=O)N(C)[C@@H](Cc3cccc(C#N)c3)C(=O)N[C@@H]([C@@H](C)CC)C(=O)N(C)CC(=O)N(C)[C@H]3CCCCCN(C3=O)[C@@H](Cc3ccc(F)cc3)C(=O)N(C)CC(=O)N[C@@H](CCc3cc(F)c(C(F)(F)F)c(F)c3)C(=O)N2C1` [PP1186] was tested, and the “NRAS/KRAS (ratio of KD value with respect to NRAS to KD value with respect to KRAS)” value ([1]; KD ratio) was “B (a compound having 3 or more and less than 10 is denoted as B)” and the “HRAS/KRAS (ratio of KD value with respect to HRAS to KD value with respect to KRAS)” value ([2]; KD ratio) was “B (a compound having 3 or more and less than 10 is denoted as B)”.

`CCO[C@@H]1C[C@H]2C(=O)NC3(CCC3)C(=O)N(C)[C@@H](C3CCCC3)C(=O)N(C)[C@H](C(=O)N(C)C)CC(=O)N(C)[C@@H](Cc3cccc(C)c3)C(=O)N[C@@H]([C@@H](C)CC)C(=O)N(C)CC(=O)N(C)[C@H]3CCCCCN(C3=O)[C@@H](Cc3ccc(C(F)(F)F)cc3)C(=O)N(C)CC(=O)N[C@@H](CCc3cc(F)c(C(F)(F)F)c(F)c3)C(=O)N2C1` [PP0942] was tested, and the “NRAS/KRAS (ratio of KD value with respect to NRAS to KD value with respect to KRAS)” value ([1]; KD ratio) was “B (a compound having 3 or more and less than 10 is denoted as B)” and the “HRAS/KRAS (ratio of KD value with respect to HRAS to KD value with respect to KRAS)” value ([2]; KD ratio) was “B (a compound having 3 or more and less than 10 is denoted as B)”.

In the case of `CCO[C@@H]1C[C@H]2C(=O)NC3(CC(C)(C)C3)C(=O)N(C)[C@@H](C(CC)CC)C(=O)N(C)[C@H](C(=O)N(C)C)CC(=O)N(C)[C@@H](CC3CCC3)C(=O)N[C@@H]([C@@H](C)CC)C(=O)N(C)CC(=O)N(C)[C@H]3C/C=C\CCN(C3=O)[C@@H](Cc3ccc(C(F)(F)F)cc3)C(=O)N(C)CC(=O)N[C@@H](CCc3ccc(C(F)(F)F)c(Cl)c3)C(=O)N2C1` [PP2138], the “NRAS/KRAS (ratio of KD value with respect to NRAS to KD value with respect to KRAS)” value [1] is reported as “A (a compound having 10 or more and less than 20 is denoted as A)” and the “HRAS/KRAS (ratio of KD value with respect to HRAS to KD value with respect to KRAS)” value [2] is reported as “A (a compound having 10 or more and less than 20 is denoted as A)”.

`CCO[C@@H]1C[C@H]2C(=O)NC3(CCC3)C(=O)N(C)[C@@H](C3CCCC3)C(=O)N(C)[C@H](C(=O)N(C)CC)CC(=O)N(C)[C@@H](CC(F)F)C(=O)N[C@@H]([C@@H](C)CC)C(=O)N(C)CC(=O)N(C)[C@H]3C/C=C\CCN(C3=O)[C@@H](Cc3ccc(C(F)(F)F)cc3)C(=O)N(C)CC(=O)N[C@@H](CCc3cc(F)c(C(F)(F)F)c(F)c3)C(=O)N2C1` [PP1303] was tested, and the “NRAS/KRAS (ratio of KD value for GDP-bound NRAS wild-type protein to KD value for KRAS)” value ([1]; KD ratio class) was “AA (a compound having 20 or more is denoted as AA)” and the “HRAS/KRAS (ratio of KD value for GDP-bound HRAS wild-type protein to KD value for KRAS)” value ([2]; KD ratio class) was “A (a compound having 10 or more and less than 20 is denoted as A)”.
